Measured values reported in US9789194B2, “Graft copolymer polyelectrolyte complexes for drug delivery” (priority 2007, dated 2017).
Peptide text beside a SMILES is read from it.

Columns and labels:
[1] = test system: Staphylococcus aureus UAMS-1; type: cell-based
Experimental: The minimum inhibitory concentrations (MIC) KSL-W and its nanocomplexes were measured using the Clinical Laboratory Standards Institute (CLSI) broth microdilution method. Briefly, two-fold serial dilutions of free or complexed KSL-W solutions were prepared in THB medium at a volume of 200 µL/well in flat-bottom 96-well tissue culture plates (BD Biosciences). Hundred microliter of Staphylococcus aureus UAMS-1 (10^6 CFU/mL) was then added to each well. Plates were incubated overnight at 37° C. and then assessed by turbidity (absorbance at 600 nm). The concentration at which no turbidity was observed was considered the MIC. Each assay was reproduced in triplicate.

in vitro = settings: human, plasma, half-life of the peptide, 50% human plasma
Experimental: Aqueous solutions of the peptide:polymer complexes with various peptide:[…], were combined 1:1 v/v with human plasma sodium heparin anticoagulated, Biological Specialty Corporation) and placed in a 37° C. incubator. Fifty microliter aliquots of this mixture were injected at 1 h intervals onto a Prosphere HP C18-300 column, 250×4.6 mm ((Grace) mounted on a Waters HPLC system. The injection was loaded onto the column and equilibrated using a 90%/10%/0.1% water/acetonitrile/trifluoroacetic acid mobile phase and then eluted using a continuous gradient up to 70% acetonitrile. Integration of the KSL-W absorbance peak at 280 nm was used to determine peptide concentration in each sample. Every sample was run in parallel with a free-drug control at the same concentration.

[2] = KSL-W binding efficiency by ultrafiltration; type: physicochemical; settings: free peptide, 10 kDa MWCO ultrafiltration
Experimental: Efficiency of binding for each polymer-drug complex was determined using ultrafiltration. Ultrafiltration cartridges with 10 k MWCO (Amicon Microcon Ultrafiltration Filters) were used according to manufacturer's instructions. […] The KSL-W content of filtrate and retentate were determined using HPLC as described above.

[3] = KSL-W release profiles by dialysis; type: physicochemical; settings: free peptide, within the first 6 h of dialysis
Experimental: Each membrane cartridge was placed into 40 mL of water at 37° C. with gentle rocking (VWR brand incubating rocker, 50 Hz/15°). […] The amount of KSL-W remaining in each cartridge was evaluated at each time point using HPLC.

Molecule | MIC ([1]; same S. aureus strain and conditions) | half-life (in vitro; initial KSL-W concentration between 33 and 72 μg/mL) | half-life (in vitro; initial concentration between 13:2 and 330) | efficiency of passing through the membrane [2] | release through 8-10 kDa dialysis membrane [3] | MIC (S. aureus UAMS-1) ([1]; UAMS-1) | MIC ratio (complexed/free) ([1]; free peptide, charge ratio NA)
gentamicin | < 3100 µg/mL |  |  |  |  |  | 
CC(C)[C@H](NC(=O)[C@H](Cc1c[nH]c2ccccc12)NC(=O)[C@H](Cc1ccccc1)NC(=O)[C@@H](NC(=O)[C@@H](NC(=O)[C@H](CCCCN)NC(=O)[C@@H](N)CCCCN)C(C)C)C(C)C)C(=O)N[C@@H](CCCCN)C(=O)N[C@@H](Cc1ccccc1)C(=O)N[C@@H](CCCCN)C(N)=O [KSL-W] (H-KKVVFWVKFK-NH2; N-terminus and C-terminus assumed) |  | 4 h | 1 h | over 95% | over 95% | 62 to 153 µg/mL | 1
